We go through nine compounds from patent US6121285A, “Substituted aminocycloalkylpyrrolidine derivatives and cis-substituted aminocycloalkylpyrrolidine derivatives” (Daiichi Pharmaceutical Co., Ltd., priority 1995, dated 2000).

In brackets after ≈: the same amount, converted by molar mass. Where two headings read alike, the source gives them in different places.

In series [1] the test system is Slc:ddy five week male mice. The series is described as follows: Acute toxicity, intravenous administration to mice. The note with it: for acute toxicity result in words: same test as cis/trans (cis: 0/5 deaths); for Number of death: hydrochloride in distilled water. It is filed as in vivo. As to the method:
A solution of 5-amino-7-[4-(R)-(1-aminocyclopropyl)-3-(S)-fluoro-1-pyrrolidinyl]-6-fluoro-1-[2-(S)-fluoro-1-(R)-cyclopropyl]-1,4-dihydro-8-methyl-4-oxoquinoline-3-carboxylic acid (abbreviated as cis) hydrochloride of Example 15 or 5-amino-7-[4-(R)-(1-aminocyclopropyl)-3-(R)-fluoro-1-pyrrolidinyl]-6-fluoro-1-[2-(S)-fluoro-1-(R)-cyclopropyl]-1,4-dihydro-8-methyl-4-oxoquinoline-3-carboxylic acid (abbreviated as trans) hydrochloride in distilled water for injection was administered intravenously to Slc:ddy five week male mice (five mice per group) and the symptoms are observed.

For a further series, the system named is E. coli, NIHJ. Kind of series: Antimicrobial activity (MIC), standard method of the Japan Society of Chemotherapy. Format: cell-based. The method, then:
(§1) Examples of the first and second aspects of the present invention are given below by way of illustration and not by way of limitation. In-this regard, the antibacterial and antimicrobial activities of the compounds of interest were measured in accordance with the standard method specified by the Japan Society of Chemotherapy. The results are shown in Tables 1 to 5 as a minimum inhibitory concentration (MIC,μg/ml). Unless otherwise indicated, all percents (%) are by weight.

The next series deals with Pr. mirabilis, IFO-3849. The description is as above. It is filed as cell-based. As to the method:
as §1

The next series relates to Pr. vulgaris, 08601. The description is as above. Format: cell-based. Conditions: for MIC: Proteus vulgaris, read-out: minimum inhibitory concentration (MIC). The method, then: as §1
For the next series, the system named is Ps. aeruginosa, 32104. Described as above. Format: cell-based. Conditions: for minimum inhibitory concentration (MIC): Ps. aeruginosa. The method, then: as §1
The subject of the next series is Ps. aeruginosa, 32121. Described as above. It is filed as cell-based. The method, then: as §1
Series [2] concerns Ps. maltophilia, IID-1275. Described as above. Format: cell-based. The method, then:
as §1

For a further series, the system named is S. aureus, 209P. The series is described as above. Format: cell-based. As to the method: as §1
For a further series, the system named is S. aureus, 870307. The series is described as above. It is filed as cell-based. As to the method: as §1
The next series has as its system S. epidermidis, 56500. The description is as above. Format: cell-based. As to the method:
as §1

A further series deals with S. flexneli, 2A 5503. Described as above. It is filed as cell-based. The note with it: for minimum inhibitory concentration (MIC): S. flexneli, 2A 5503. As to the method: as §1
A further series deals with Ser. marcescens, 10100. The series is described as above. It is filed as cell-based. The method, then:
as §1

The test system of series [3] is Str. faecalis, ATCC-19433. The description is as above. Format: cell-based. The method, then: as §1
The test system of another series is Str. pyogenes, G-36. Described as above. Format: cell-based. The method, then: as §1
Where [4] appears, read: Staphylococcus aureus, read-out: minimum inhibitory concentration (MIC).
The mark [5] stands for this setting: Staphylococcus epidermidis, S. epidermidis, 56500, read-out: minimum inhibitory concentration (MIC).
The mark [6] stands for this setting: 150 mg/kg, * = test stopped when second mouse died.

With `Cc1c(N2C[C@@H](CO)[C@@H](C3(N)CC3)C2)c(F)c(N)c2c(=O)c(C(=O)O)cn(C3CC3)c12` (relative stereo) [Example 14, 5-Amino-7-[cis-4-(1-aminocyclopropyl)-3-hydroxymethyl-1-pyrrolidinyl]-1-cyclopropyl-6-fluoro-1,4-dihydro-8-methyl-4-oxoquinoline-3-carboxylic acid], the “acute toxicity result in words” value in [1] (150 mg/kg) was “same result”.
As for `Cc1c(N2C[C@@H](F)[C@@H](C3(N)CCC3)C2)c(F)c(N)c2c(=O)c(C(=O)O)cn([C@@H]3C[C@@H]3F)c12` (single isomer, unassigned; isomer b) [Example 13], the “minimum inhibitory concentration (MIC)” value in the series on E. coli, NIHJ is at most 0.003 µg/mL; in the series on Pr. mirabilis, IFO-3849 it was 0.05 µg/mL (≈ 0.111 µM); with Pr. vulgaris, 08601 it was 0.025 µg/mL (≈ 0.0555 µM); with Ps. aeruginosa, 32104 it was 0.20 µg/mL (≈ 0.444 µM); in the series with Ps. aeruginosa, 32121, 0.10 µg/mL (≈ 0.222 µM); in [2], 0.20 µg/mL (≈ 0.444 µM). In addition, the “minimum inhibitory concentration (MIC)” value with S. aureus, 209P is at most 0.003 µg/mL; in the series with S. aureus, 870307 it was 0.05 µg/mL (≈ 0.111 µM); in the series with S. epidermidis, 56500 (S. epidermidis, 56500), 0.006 µg/mL (≈ 0.0133 µM); with S. flexneli, 2A 5503, 0.006 µg/mL (≈ 0.0133 µM); in the series on Ser. marcescens, 10100, 0.20 µg/mL (≈ 0.444 µM); in [3], 0.025 µg/mL (≈ 0.0555 µM). Also, in the series on Str. pyogenes, G-36, the “minimum inhibitory concentration (MIC)” value came to 0.006 µg/mL (≈ 0.0133 µM). Moreover, the “acute toxicity result in words” value in series [1] (150 mg/kg) is recorded as “same result”.
With `Cc1c(N2C[C@H](C)[C@@H](C3(N)CC3)C2)c(F)c(N)c2c(=O)c(C(=O)O)cn([C@@H]3C[C@@H]3F)c12` [Example 3, 5-Amino-7-[(3R,4R)-3-(1-aminocyclopropyl)-4-methyl-1-pyrrolidinyl]-6-fluoro-1-[(1R,2S)-2-fluorocyclopropyl]-1,4-dihydro-8-methyl-4-oxoquinoline-3-carboxylic acid], the MIC in the series on E. coli, NIHJ (Escherichia coli, read-out: minimum inhibitory concentration (MIC)) was at most 0.003 µg/mL; in the series on Pr. mirabilis, IFO-3849 (Proteus mirabilis, IFO3849, read-out: minimum inhibitory concentration (MIC)), 0.05 µg/mL (≈ 0.116 µM); in the series with Pr. vulgaris, 08601, 0.025 µg/mL (≈ 0.0578 µM); in the series with Ps. aeruginosa, 32104 (Pseudomonas aeruginosa, 32104, Ps. aeruginosa, read-out: minimum inhibitory concentration (MIC)), 0.2 µg/mL (≈ 0.462 µM); in the series on Ps. aeruginosa, 32121 (Pseudomonas aeruginosa, read-out: minimum inhibitory concentration (MIC)), 0.1 µg/mL (≈ 0.231 µM); in series [2] (Stenotrophomonas maltophilia, IID1275, read-out: minimum inhibitory concentration (MIC)), 0.1 µg/mL (≈ 0.231 µM). Also, the MIC is at most 0.003 µg/mL in the series with S. aureus, 209P (setting [4]); 0.025 µg/mL (≈ 0.0578 µM) in the series with S. aureus, 870307 (setting [4]); at most 0.003 µg/mL in the series with S. epidermidis, 56500 (setting [5]); at most 0.003 µg/mL in the series on S. flexneli, 2A 5503 (read-out: minimum inhibitory concentration (MIC), S. flexneli, 2A 5503); 0.1 µg/mL (≈ 0.231 µM) with Ser. marcescens, 10100 (Serratia marcescens, read-out: minimum inhibitory concentration (MIC)); 0.025 µg/mL (≈ 0.0578 µM) in series [3] (Enterococcus faecalis, ATCC19433, read-out: minimum inhibitory concentration (MIC)). Moreover, the MIC in the series with Str. pyogenes, G-36 (Streptococcus pyogenes, G36, read-out: minimum inhibitory concentration (MIC)) was at most 0.003 µg/mL.
In the case of `Cc1c(N2C[C@H](F)[C@@H](C3(N)CC3)C2)c(F)c(N)c2c(=O)c(C(=O)O)cn([C@@H]3C[C@@H]3F)c12.Cl` [Example 5, 5-Amino-7-[4-(R)-(1-aminocyclopropyl)-3-(R)-fluoro-1-pyrrolidinyl]-6-fluoro-1-[2-(S)-fluoro-1-(R)-cyclopropyl]-1,4-dihydro-8-methyl-4-oxoquinoline-3-carboxylic acid hydrochloride], the MIC in the series on S. epidermidis, 56500 (setting [5]) was at most 0.003 µg/mL. Besides, the Number of death in [1] (50 mg/kg) is given as 0/5; in [1] (100 mg/kg, * = test stopped when second mouse died) it was 2/2; in series [1] (setting [6]), 2/2.
On to `COc1c(N2C[C@@H](F)[C@@H](C3(N)CC3)C2)c(F)cc2c(=O)c(C(=O)O)cn([C@@H]3C[C@@H]3F)c12` [Example 12, 7-[4-(R)-(1-Aminocyclopropyl)-3-(S)-fluoro-1-pyrrolidinyl]-6-fluoro-1-[2-(S)-fluoro-1-(R)-cyclopropyl]-1,4-dihydro-8-methoxy-4-oxoquinoline-3-carboxylic acid], for which the MIC in the series with Pr. vulgaris, 08601 came out at 0.006 µg/mL (≈ 0.0137 µM). Besides, the “minimum inhibitory concentration (MIC)” value came out at 0.20 µg/mL (≈ 0.457 µM) with Ps. aeruginosa, 32104 (listed as 18); 0.013 µg/mL (≈ 0.0297 µM) with S. flexneli, 2A 5503; 0.006 µg/mL (≈ 0.0137 µM) in the series on S. flexneli, 2A 5503 (listed as 18). Also, the “acute toxicity result in words” value in [1] (150 mg/kg) is “same result”.
Take `Cc1c(N2C[C@@H](F)[C@@H](C3(N)CC3)C2)c(F)c(N)c2c(=O)c(C(=O)O)cn([C@@H]3C[C@@H]3F)c12.Cl` [Example 15, 5-Amino-7-[4-(R)-(1-aminocyclopropyl)-3-(S)-fluoro-1-pyrrolidinyl]-6-fluoro-1-[2-(S)-fluoro-1-(R)-cyclopropyl]-1,4-dihydro-8-methyl-4-oxoquinoline-3-carboxylic acid hydrochloride]: in series [1] (setting [6]), the Number of death was 0/5.
On to `COc1c(N2C[C@@H](F)[C@@H](C3(N)CC3)C2)c(F)c(N)c2c(=O)c(C(=O)O)cn([C@@H]3C[C@@H]3F)c12` [Example 16, 5-Amino-7-[4-(R)-(1-aminocyclopropyl)-3-(S)-fluoro-1-pyrrolidinyl]-6-fluoro-1-[2-(S)-fluoro-1-(R)-cyclopropyl]-1,4-dihydro-8-methoxy-4-oxoquinoline-3-carboxylic acid], for which the “acute toxicity result in words” value in series [1] (150 mg/kg) is “same result”.
Consider `C[C@H]1COc2c(N3C[C@@H](F)[C@@H](C4(N)CC4)C3)c(F)cc3c(=O)c(C(=O)O)cn1c23` [Example 17, 10-[4-(R)-(1-Aminocyclopropyl)-3-(S)-fluoro-1-pyrrolidinyl]-9-fluoro-2,3-dihydro-3-(S)-methyl-7-oxo-7H-pyrido[1,2,3-de][1,4]benzoxazine-6-carboxylic acid], for which, in series [1] (150 mg/kg), the “acute toxicity result in words” value is given as “same result”.
In the case of `C[C@H]1COc2c(N3C[C@@H](F)[C@@H](C4(N)CC4)C3)c(F)c(N)c3c(=O)c(C(=O)O)cn1c23` [Example 21, 8-Amino-10-[4-(R)-(1-aminocyclopropyl)-3-(S)-fluoro-1-pyrrolidinyl]-9-fluoro-2,3-dihydro-3-(S)-methyl-7-oxo-7H-pyrido[1,2,3-de][1,4]benzoxazine-6-carboxylic acid], the MIC with S. epidermidis, 56500 (Staphylococcus epidermidis, 56500, read-out: minimum inhibitory concentration (MIC)) turned out to be 0.013 µg/mL (≈ 0.0309 µM). Besides, in [1] (150 mg/kg), the “acute toxicity result in words” value is “same result”.
